Source: patent US6683166B2, “Modified internucleoside linkages (ii)” (ISIS Pharmaceuticals, Inc., priority 1992, dated 2004)

Legend:
Type in all cases: binding
[1] = system: Single Stranded Target (DNA); assay: Thermal denaturation Tm, DNA-duplex
Description: (§1) RNA and DNA duplex and DNA-triplex experiments utilizing certain desirable modified internucleoside linkages of this invention were conducted to determine those linkages' effect on the Tm values of the resulting oligonucleotides.
(§2) These experiments were carried out in a buffered solution (140 mM KCl, 5 mM Na2HPO4, and 1 mM MgCl2) at pH=6.6 (except for the 2′-5′ carbamate which was buffered at pH=7.0) according to the following protocol: 0.15 ODs of the target RNA/DNA was combined with 0.1 OD of the oligomer being assayed in a sterile eppendorf tube and dried. To this mixture was added 300 λ of Tm buffer and the solution was stirred. Tm values were then determined by a first derivative plot of absorbance versus temperature. Thermal denaturation analysis was carried out-with a heating rate of 0.25° C./min and absorbance was monitored at 260 nm.
(§3) The test oligomers that were synthesized for analysis were of the following sequence:
(§4) 5′-TC^mTC^mTC^mTC^mTC^mT^TT^TT-3′
(§5) where T=thymidine, C^m=5-methyl-2′-deoxycytidine, and T^T=a thymidine-thymidine dimer with an experimental linkage of the structure detailed in the table below. All other linkages were phosphodiester.

[2] = system: Single Stranded Target (RNA); assay: Thermal denaturation Tm, DNA-RNA-duplex
Description: as §1, §2, §3, §4, §5

[3] = system: Target Duplex Sequence (DNA) 5′ AGAGAGAGAGAAAAA 3′; assay: Thermal denaturation Tm, DNA-Triplex
Description: as §1, §2, §3, §4, §5

[4] = Tm change per substituted linkage vs control of the same group

Substance: 5′-2′ thioformacetal: Test oligomer 5′-TCmTCmTCmTCmTCmT^TT^TT-3′, the two T^T dimers having a 5′-2′ thioformacetal linkage; other linkages phosphodiester
- DNA-duplex Tm ([1]; 140 mM KCl, 5 mM Na2HPO4, 1 mM MgCl2, pH 6.6 (2′-5′ carbamate buffered at pH 7.0), first derivative of A260 vs temperature): 53.0
- DNA-duplex ° C./subst [1, 4]: +1.8 ° C./subst
- DNA-RNA-duplex Tm ([2]; 140 mM KCl, 5 mM Na2HPO4, 1 mM MgCl2, pH 6.6 (2′-5′ carbamate buffered at pH 7.0)): 58.5
- DNA-RNA-duplex ° C./subst [2, 4]: −1.5 ° C./subst
- DNA-Triplex Tm ([3]; 140 mM KCl, 5 mM Na2HPO4, 1 mM MgCl2, pH 6.6): 39.0
- DNA-Triplex ° C./subst ([3]; pH 6.6, Tm change per substituted linkage vs control): 0 ° C./subst
